Assay results taken from US9193669B2, “Compounds for treating ophthalmic diseases and disorders” (Acucela Inc., priority 2008, dated 2015).

Molecular target: T1, isomerase (Mus musculus, UniProt Q91ZQ5)
T1 construct: The recovery of 11-cis-retinal after bleaching can be used to estimate the activity of isomerase in vivo; from tissue; host or cells: eyes of living mice (CD-1; Balb/c also named)
T1 sequence (Q91ZQ5 1-533): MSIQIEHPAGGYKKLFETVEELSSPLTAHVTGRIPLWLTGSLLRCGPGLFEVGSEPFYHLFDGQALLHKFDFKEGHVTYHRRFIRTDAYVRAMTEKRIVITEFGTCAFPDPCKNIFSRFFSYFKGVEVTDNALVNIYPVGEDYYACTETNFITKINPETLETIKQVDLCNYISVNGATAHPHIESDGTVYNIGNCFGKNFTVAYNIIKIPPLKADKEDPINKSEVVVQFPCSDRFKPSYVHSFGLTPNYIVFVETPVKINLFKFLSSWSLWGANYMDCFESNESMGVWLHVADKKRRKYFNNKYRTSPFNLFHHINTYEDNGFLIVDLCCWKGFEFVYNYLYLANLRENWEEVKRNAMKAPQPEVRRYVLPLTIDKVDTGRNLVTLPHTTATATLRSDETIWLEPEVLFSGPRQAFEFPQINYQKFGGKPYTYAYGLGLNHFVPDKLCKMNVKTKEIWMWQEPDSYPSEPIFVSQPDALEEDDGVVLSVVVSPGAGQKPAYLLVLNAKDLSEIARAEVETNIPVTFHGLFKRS
Assay: In vivo murine isomerase assay
Set-up: species or system mice
Details: mouse, po, 4 h; read-out: % Inibition 1 mg/kg, 4 h
Protocol: The capability of compounds described herein to inhibit isomerase was determined by an in vivo murine isomerase assay. Brief exposure of the eye to intense light (“photobleaching” of the visual pigment or simply “bleaching”) is known to photo-isomerize almost all 11-cis-retinal in the retina. The recovery of 11-cis-retinal after bleaching can be used to estimate the activity of isomerase in vivo. Delayed recovery, as represented by lower 11-cis-retinal oxime levels, indicates inhibition of isomerization reaction. Procedures were performed essentially as described by Golczak et al., Proc. Natl. Acad. Sci. […] Mice were gavaged with the compounds described in the present disclosure. After about 2-24 hours in the dark, the mice were exposed to photobleaching of about 5,000 lux of white light for 10 minutes. The mice were allowed to recover for about 2 hours in the dark. The animals were then sacrificed by carbon dioxide inhalation. Retinoids were extracted from the eye and the regeneration of 11-cis-retinal was assessed at various time intervals. […] After the mice were sacrificed, the eyes were immediately removed and placed in liquid nitrogen for storage. The eyes were placed in about 500 μL of bis-tris propane buffer (10 mM, pH˜7.3) and about 20 μl of 0.8M hydroxylamine (pH˜7.3). The eyes were cut up into small pieces with small iris scissors and then thoroughly homogenized at 30000 rpm with a mechanical homogenizer (Polytron PT 1300 D) in the tube until no visible tissue remains. About 500 μL of methanol and about 500 μL of heptane was added to each tube. The tubes were attached to a vortexer so that the contents are mixed thoroughly for about 15 minutes in room temperature. […] The samples were analyzed on an Agilent 1100 HPLC system with normal phase column: SILICA (Beckman Coutlier, dp 5 μm, […]). […] Loading volume for each sample was about 100 μl; detection wavelength is 360 nm. The area under the curve for 11-cis-retinal oxime was calculated by Agilent Chemstation software and recorded manually. Data processing was performed using Prizm software. Positive control mice (no compound administered) were sacrificed fully dark-adapted and the eye retinoids analyzed. Light (bleached) control mice (no compound administered) were sacrificed and retinoids isolated and analyzed immediately after light treatment. A time course study was also performed to determine the isomerase inhibitory activity of compounds of the present disclosure. Female or male mice (such as Balb/c mice) (at least 4/group) received 0 to about 5 mg of compounds (in water) per kg bodyweight orally, by gavage. The animals were then “photo-bleached” (about 5000 Lux white light for about 10 minutes) at about 2, 4, 8, 16 and 24 hours after dosing, and returned to darkness to allow recovery of the 11-cis-retinal content of the eyes. Mice were sacrificed about 2 hours after bleaching, eyes were enucleated, and retinoid content was analyzed by HPLC. A dose response in vivo isomerase inhibition study is performed with compounds of the present disclosure. Male or female mice (such as Balb/c mice)(at least about 8/group) are dosed orally with about 0.01 to 25 mg/kg of the compounds of HCl salts of the compounds in sterile water as solution, and photobleached about 4 hours after dosing. Recovery and retinoid analysis is performed as described above. Dark control mice are vehicle-only treated, sacrificed fully dark adapted without light treatment, and analyzed. […]

| SMILES | inhibition in vivo at 1 mg/kg [%] |
| --- | --- |
| NCCC(=O)c1cccc(NCC2CCCC2)c1 [Example 40, 3-Amino-1-(3-(cyclopentylmethylamino)phenyl)propan-1-one] | 1.24 ± 9.74 |
| NCCC(O)c1cccc(NCCCc2ccccc2)c1 (stereo not drawn) [Example 59, 3-Amino-1-(3-(3-phenylpropylamino)phenyl)propan-1-ol] | 4.24 ± 13 |
| NCCCc1cccc(NCCCc2ccccc2)c1 [Example 64, 3-(3-Aminopropyl)-N-(3-phenylpropyl)aniline] | 3.83 |
| NCCC(O)c1cccc(NCCc2ccccc2)c1 (stereo not drawn) [Example 49, 3-Amino-1-(3-(phenethylamino)phenyl)propan-1-ol] | 4.54 |
| CCCC(CCC)C(=O)Nc1cccc(C(O)CCN)c1 (stereo not drawn) [Example 73, N-(3-(3-Amino-1-hydroxypropyl)phenyl)-2-propylpentanamide] | -1.24 ± 4.43 |
| [2H]C([2H])(N)CC(O)c1cccc(C#CC2(O)CCCCC2)c1 (stereo not drawn) [Example 121, 1-((3-(3-amino-3,3-dideutero-1-hydroxypropyl)phenyl)ethynyl)cyclohexanol] | 27.5 ± 9.6 |
| NCCC(O)c1cccc(NS(=O)(=O)c2ccccc2)c1 (stereo not drawn) [Example 101, N-(3-(3-Amino-1-hydroxypropyl)phenyl)benzenesulfonamide] | 1.82 ± 10.5 |
| NCCC(O)c1cccc(NCCCCCOCc2ccccc2)c1 (stereo not drawn) [Example 41, 3-Amino-1-(3-(5-(benzyloxy)pentylamino)phenyl)propan-1-ol] | -0.34 ± 6.12 |
| [2H]C1([2H])C([2H])([2H])C([2H])([2H])C([2H])(C(=O)Nc2cccc(C(O)CCN)c2)C([2H])([2H])C1([2H])[2H] (stereo not drawn) [Example 93, N-(3-(3-Amino-1-hydroxypropyl)phenyl)-1,2,2,3,3,4,4,5,5,6,6-undecadeuterocyclohexanecarboxamide] | -0.53 ± 4.53 |
| [2H]C([2H])(N)CC(O)c1cccc(NCC2CCCCC2)c1 (stereo not drawn) [Example 83, 3-Amino-1-(3-(cyclohexylmethylamino)phenyl)-3,3-dideuteropropan-1-ol] | 89.5 ± 2.09 |
| CCCCCNc1cccc(C(O)CCN)c1 (stereo not drawn) [Example 13, 3-amino-1-(3-(pentylamino)phenyl)propan-1-ol] | 1.98 ± 6.02 |
| CCC(CC)CNc1cccc(CCCN)c1 [Example 33, 3-(3-aminopropyl)-N-(2-ethylbutyl)aniline] | 4.32 ± 7.88 |
| COc1ccccc1CNc1cccc(C(=O)CCN)c1 [Example 48, 3-Amino-1-(3-(2-methoxybenzylamino)phenyl)propan-1-one] | 0.21 ± 8.88 |
| NCCC(=O)c1cccc(NS(=O)(=O)c2ccccc2)c1 [Example 103, N-(3-(3-Aminopropanoyl)phenyl)benzenesulfonamide] | -2.77 ± 6.53 |
| [2H]C1(CNc2cccc(C(O)CCN)c2)CCCCC1 (stereo not drawn) [Example 91, 3-Amino-1-(3-((1-deuterocyclohexyl)methylamino)phenyl)propan-1-ol] | 95.5 ± 1.07 |
| NCCCc1cccc(NS(=O)(=O)c2ccccc2)c1 [Example 99, N-(3-(3-Aminopropyl)phenyl)benzenesulfonamide] | -3.83 ± 5.52 |
| CCC(CC)CNc1cccc(C(=O)CCN)c1 [Example 36, 3-Amino-1-(3-(2-ethylbutylamino)phenyl)propan-1-one] | -1.4 ± 2.78 |
| [2H]C([2H])(N)CC(O)c1cccc(C#CC2CCCCC2)c1 (stereo not drawn) [Example 123, 3-amino-1-(3-(cyclohexylethynyl)phenyl)-3,3-dideuteropropan-1-ol] | 91.4 ± 2.5 |

| SMILES | inhibition in vivo at 1 mg/kg [%] |
| --- | --- |
| NCCC(O)c1cccc(NC(=O)C2CCCCC2)c1 (stereo not drawn) [Example 15, N-(3-(3-amino-1-hydroxypropyl)phenyl)cyclohexanecarboxamide] | -0.003 ± 19.4 |
| NCCC(=O)c1cccc(NC(=O)C2CCCCC2)c1 [Example 16, N-(3-(3-aminopropanoyl)phenyl)cyclohexanecarboxamide] | 17.1 ± 5.32 |
| [2H]C([2H])(CN)C(O)c1cccc(NC(=O)C2CCCCC2)c1 (stereo not drawn) [Example 57, N-(3-(3-amino-2,2-dideutero-1-hydroxypropyl)phenyl)cyclohexanecarboxamide] | 2.01 ± 1.3 |
| CN(CC1CCCCC1)c1cccc(C(O)CCN)c1 (stereo not drawn) [Example 90, 3-Amino-1-(3-((cyclohexylmethyl)(methyl)amino)phenyl)propan-1-ol] | 3.17 ± 4.97 |
| [2H]/C(=C(/[2H])C(O)(CCC)CCC)c1cccc(C(O)CCN)c1 (stereo not drawn) [Example 117, (E)-4-(2-(3-(3-Amino-1-hydroxypropyl)phenyl)-1,2-dideuterovinyl)heptan-4-ol] | 97.9 ± 1.5 |
| [2H]C([2H])(CN)C(O)c1cccc(C#CC2CCCCC2)c1 (stereo not drawn) [Example 122, 3-amino-1-(3-(cyclohexylethynyl)phenyl)-2,2-dideuteropropan-1-ol] | 84.9 ± 4.5 |
| NCCC(O)c1cccc(NCC2CCCC2)c1 (stereo not drawn) [Example 39, 3-Amino-1-(3-(cyclopentylmethylamino)phenyl)propan-1-ol] | 69.9 ± 6.85 |
| NCCC(=O)c1cccc(NCCCc2ccccc2)c1 [Example 60, 3-Amino-1-(3-(3-phenylpropylamino)phenyl)propan-1-one] | -1.33 ± 5.2 |
| [2H]C([2H])(CN)C(O)c1cccc(NCC2CCCCC2)c1 (stereo not drawn) [Example 82, 3-Amino-1-(3-(cyclohexylmethylamino)phenyl)-2,2-dideuteropropan-1-ol] | 75.1 ± 8.03 |
| COc1ccccc1CNc1cccc(C(O)CCN)c1 (stereo not drawn) [Example 47, 3-Amino-1-(3-((2-methoxybenzyl)amino)phenyl)propan-1-ol] | 4.08 ± 4.84 |
| [2H]C(O)(CCN)c1cccc(NCC2CCCCC2)c1 (stereo not drawn) [Example 81, 3-Amino-1-(3-(cyclohexylmethylamino)phenyl)-1-deuteropropan-1-ol] | 85 ± 3.06 |
| CCC(CC)CNc1cccc(C(O)CCN)c1 (stereo not drawn) [Example 35, 3-amino-1-(3-(2-ethylbutylamino)phenyl)propan-1-ol] | 95.2 ± 1.41 |
| CCCC(CCC)CNc1cccc(C(O)CCN)c1 (stereo not drawn) [Example 37, 3-Amino-1-(3-(2-propylpentylamino)phenyl)propan-1-ol] | 101.6 ± 0.49 |
| CCCCCNc1cccc(C(=O)CCN)c1 [Example 14, 3-amino-1-(3-(pentylamino)phenyl)propan-1-one] | 8.12 ± 16.2 |
| NCCC(=O)c1cccc(NCC2CCCCC2)c1 [Example 12, 3-amino-1-(3-(cyclohexylmethylamino)phenyl)propan-1-one] | 9.16 ± 9.41 |
| NCCC(O)c1cccc(NCC2CCCCC2)c1 (stereo not drawn) [Example 11, 3-amino-1-(3-(cyclohexylmethylamino)phenyl)propan-1-ol] | 95.3 ± 2.7 |
| [2H]C([2H])(CN)C(O)c1cccc(NS(=O)(=O)C2CCCCC2)c1 (stereo not drawn) [Example 58, N-(3-(3-amino-2,2-dideutero-1-hydroxypropyl)phenyl)cyclohexanesulfonamide] | 6.94 ± 5.15 |
| NCCCc1cccc(NCC2CCCC2)c1 [Example 31, 3-(3-aminopropyl)-N-(cyclopentylmethyl)aniline] | 9.52 ± 4.6 |
